Test results from PubChem BioAssay AID330 (DTP/NCI, 2004).
“And” between values parts separate entries of the source, which are not always exact repeats. Equal entries are not always repeated. Toxic doses and inconclusive results are not listed. Rule for the calls: active = survival T/C of 150% or more; inactive = T/C below 125% in these data.

Test system: P388 leukemia ip, CD2F1 mice, survival T/C
Experiment: NCI In Vivo Anticancer Drug Screen. Data for tumor model P388 Leukemia (intraperitoneal) in CD2F1 (CDF1) mice
Details: endpoint: median survival time, higher = longer survival
How it was run: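 Mice carrying the transplanted tumor received test compound or vehicle. Survival was recorded in each group, and the value is the treated-group measurement divided by that of the vehicle-treated control group.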

[1] = dose: 50.0 mg/kg/injection, schedule: Q01DX009 (ip), vehicle: Klucel (hydroxypropylcellulose) (HPC)
[2] = dose: 100.0 mg/kg/injection, schedule: Q01DX009 (ip), vehicle: Klucel (hydroxypropylcellulose) (HPC)
[3] = dose: 200.0 mg/kg/injection, schedule: Q01DX009 (ip), vehicle: Klucel (hydroxypropylcellulose) (HPC)
[4] = dose: 60.0 mg/kg/injection, schedule: Q01DX005 (ip), vehicle: saline with Tween-80
[5] = dose: 120.0 mg/kg/injection, schedule: Q01DX005 (ip), vehicle: saline with Tween-80
[6] = dose: 240.0 mg/kg/injection, schedule: Q01DX005 (ip), vehicle: saline with Tween-80
[7] = dose: 100.0 mg/kg/injection, schedule: Q01DX009 (ip), vehicle: saline
[8] = dose: 200.0 mg/kg/injection, schedule: Q01DX009 (ip), vehicle: saline
[9] = dose: 50.0 mg/kg/injection, schedule: Q01DX005 (ip), vehicle: saline with Tween-80
[10] = dose: 100.0 mg/kg/injection, schedule: Q01DX005 (ip), vehicle: saline with Tween-80
[11] = dose: 200.0 mg/kg/injection, schedule: Q01DX005 (ip), vehicle: saline with Tween-80

Measured: T/C

COc1ccc(CCNCc2cccc(O)c2)cc1OC
inactive: [1] 90 % of control | [2] 92 % of control | [3] 88 % of control

C=CC1=C(C)c2cc3[n-]c(c(CC(=O)O)c4nc(cc5[n-]c(cc1n2)c(C)c5CC)C(C)=C4C(=O)O)C(CCC(=O)O)C3C.[Pt+2] (stereo not drawn)
inactive: dose: 25.0 mg/kg/injection, schedule: Q04DX002 (ip), vehicle: saline 96 % of control | dose: 50.0 mg/kg/injection, schedule: Q04DX002 (ip), vehicle: saline 99 % of control | dose: 100.0 mg/kg/injection, schedule: Q04DX002 (ip), vehicle: saline 97 % of control | dose: 200.0 mg/kg/injection, schedule: Q04DX002 (ip), vehicle: saline 88 % of control | dose: 400.0 mg/kg/injection, schedule: Q04DX002 (ip), vehicle: saline 90 % of control

O=C(Nc1ccc(Br)c2ccccc12)c1ccc2ccccc2c1O
inactive: [4] 91 % of control | [5] 92 % of control

NC(Cc1ccccc1)C(=O)Nc1ccncc1 (stereo not drawn)
inactive: dose: 12.5 mg/kg/injection, schedule: Q01DX001 (ip), vehicle: saline 105 % of control | dose: 25.0 mg/kg/injection, schedule: Q01DX001 (ip), vehicle: saline 106 % of control | dose: 50.0 mg/kg/injection, schedule: Q01DX001 (ip), vehicle: saline 103 % of control

CCCCCCCCCCCCCCCCN1CCS(=O)(=O)CC1
inactive: [1] 108 % of control | [2] 100 % of control and 98 % of control | [3] 101 % of control and 88 % of control

CCN(CC)CCSCCCNc1cc(C)nc2c1ccc1c2ccc2c(NCCCSCCN(CC)CC)cc(C)nc21
inactive: dose: 1.56 mg/kg/injection, schedule: Q01DX009 (ip), vehicle: distilled water + Tween-80 100 % of control | dose: 3.12 mg/kg/injection, schedule: Q01DX009 (ip), vehicle: distilled water + Tween-80 102 % of control | dose: 6.25 mg/kg/injection, schedule: Q01DX009 (ip), vehicle: distilled water + Tween-80 104 % of control | dose: 12.5 mg/kg/injection, schedule: Q01DX009 (ip), vehicle: distilled water + Tween-80 100 % of control

O=C(O)C(Cc1ccccc1)Nc1ncnc2nc[nH]c12 (stereo not drawn)
inactive: dose: 50.0 mg/kg/injection, schedule: Q01DX005 (ip), vehicle: Klucel (hydroxypropylcellulose) (HPC) 93 % of control | dose: 100.0 mg/kg/injection, schedule: Q01DX005 (ip), vehicle: Klucel (hydroxypropylcellulose) (HPC) 100 % of control | dose: 200.0 mg/kg/injection, schedule: Q01DX005 (ip), vehicle: Klucel (hydroxypropylcellulose) (HPC) 100 % of control

COc1ccc2c(c1C)CN1CCc3cc4c(cc3C1=C2)OCO4
inactive: [4] 99 % of control | [5] 117 % of control | [6] 100 % of control

Clc1ccc(N2CCOCC2)nn1
inactive: dose: 50.0 mg/kg/injection, schedule: Q01DX009 (ip), vehicle: saline 104 % of control | [7] 88 % of control | [8] 100 % of control

C(=N\N1CCCCCC1)/c1c2ccccc2cc2ccccc12
inactive: dose: 50.0 mg/kg/injection, schedule: Q01DX005 (ip), vehicle: Klucel + Tween-80 89 % of control | dose: 100.0 mg/kg/injection, schedule: Q01DX005 (ip), vehicle: Klucel + Tween-80 90 % of control | dose: 200.0 mg/kg/injection, schedule: Q01DX005 (ip), vehicle: Klucel + Tween-80 92 % of control

COc1ccc(CCC#N)cc1OC
inactive: dose: 25.0 mg/kg/injection, schedule: Q01DX009 (ip), vehicle: other 104 % of control | dose: 50.0 mg/kg/injection, schedule: Q01DX009 (ip), vehicle: other 105 % of control | dose: 100.0 mg/kg/injection, schedule: Q01DX009 (ip), vehicle: other 100 % of control | dose: 200.0 mg/kg/injection, schedule: Q01DX009 (ip), vehicle: other 110 % of control

Cc1c(COC(=O)NC(C)C)c(COC(=O)NC(C)C)c2n1CCS2(=O)=O
inactive: dose: 25.0 mg/kg/injection, schedule: Q01DX005 (ip), vehicle: saline with Tween-80 92 % of control | [9] 100 % of control | [10] 92 % of control | [11] 86 % of control and 91 % of control | dose: 400.0 mg/kg/injection, schedule: Q01DX005 (ip), vehicle: saline with Tween-80 91 % of control

COc1cc2ccncc2cc1O
inactive: dose: 3.13 mg/kg/injection, schedule: Q01DX009 (ip), vehicle: water 91 % of control | dose: 6.25 mg/kg/injection, schedule: Q01DX009 (ip), vehicle: water 95 % of control | dose: 12.5 mg/kg/injection, schedule: Q01DX009 (ip), vehicle: water 100 % of control | dose: 25.0 mg/kg/injection, schedule: Q01DX009 (ip), vehicle: water 95 % of control | dose: 50.0 mg/kg/injection, schedule: Q01DX009 (ip), vehicle: water 103 % of control

COC(=O)C(=O)C(C(=O)C(c1ccccc1)c1ccccc1)c1nc2n(c1O)/C(=N/C(=O)Nc1ccc(Cl)cc1)N=N2 (stereo not drawn)
inactive: [4] 100 % of control | [5] 98 % of control | [6] 99 % of control

COC(=O)c1ccc(SCCCN2CCOCC2)cc1
inactive: [7] 91 % of control | dose: 176.0 mg/kg/injection, schedule: Q04DX003 (ip), vehicle: saline 90 % of control | [8] 91 % of control | dose: 264.0 mg/kg/injection, schedule: Q04DX003 (ip), vehicle: saline 95 % of control | dose: 400.0 mg/kg/injection, schedule: Q01DX009 (ip), vehicle: saline 100 % of control | dose: 400.0 mg/kg/injection, schedule: Q04DX003 (ip), vehicle: saline 104 % of control

CC1=C(C(N)=O)C(c2ccc(O)cc2)NC(=S)N1 (stereo not drawn)
inactive: dose: 60.0 mg/kg/injection, schedule: Q01DX005 (ip), vehicle: Klucel (hydroxypropylcellulose) (HPC) 101 % of control | dose: 120.0 mg/kg/injection, schedule: Q01DX005 (ip), vehicle: Klucel (hydroxypropylcellulose) (HPC) 101 % of control | dose: 240.0 mg/kg/injection, schedule: Q01DX005 (ip), vehicle: Klucel (hydroxypropylcellulose) (HPC) 101 % of control

c1ccc(C2=C(c3ccccc3)C3SC4CCCC3C4(N3CCOCC3)S2)cc1 (stereo not drawn)
inactive: dose: 100.0 mg/kg/injection, schedule: Q01DX001 (ip), vehicle: Klucel (hydroxypropylcellulose) (HPC) 95 % of control | dose: 200.0 mg/kg/injection, schedule: Q01DX001 (ip), vehicle: Klucel (hydroxypropylcellulose) (HPC) 99 % of control | dose: 400.0 mg/kg/injection, schedule: Q01DX001 (ip), vehicle: Klucel (hydroxypropylcellulose) (HPC) 93 % of control

N#CC(NCc1ccccc1)c1ccccc1 (stereo not drawn)
inactive: [4] 99 % of control | [5] 100 % of control

COC(=O)/C(=C/Cl)NC(C)=O
inactive: dose: 12.5 mg/kg/injection, schedule: Q01DX001 (ip), vehicle: suspension in saline 91 % of control | dose: 25.0 mg/kg/injection, schedule: Q01DX001 (ip), vehicle: suspension in saline 99 % of control | dose: 50.0 mg/kg/injection, schedule: Q01DX001 (ip), vehicle: suspension in saline 92 % of control | dose: 200.0 mg/kg/injection, schedule: Q01DX001 (ip), vehicle: suspension in saline 98 % of control

O=C(Nc1ccccc1-c1ccccc1)c1ccc2c(c1)OCO2
inactive: [9] 97 % of control | [10] 111 % of control | [11] 97 % of control

NC1(c2ccccc2)C2CC3CC(C2)CC1C3 (stereo not drawn)
inactive: dose: 25.0 mg/kg/injection, schedule: Q04DX003 (ip), vehicle: Klucel (hydroxypropylcellulose) (HPC) 101 % of control | dose: 50.0 mg/kg/injection, schedule: Q04DX003 (ip), vehicle: Klucel (hydroxypropylcellulose) (HPC) 102 % of control | dose: 100.0 mg/kg/injection, schedule: Q04DX003 (ip), vehicle: Klucel (hydroxypropylcellulose) (HPC) 109 % of control
